Measurements from US5298490A, “Tetra and penta-peptides useful in regulating the immune system” (Immunobiology Research Institute, Inc., priority 1990, dated 1994).
Square brackets hold non-standard residues; d marks the D form. Ends that are not written are not given here. Peptide text beside a SMILES is read from it. Aib = CC(C)(N)C(=O)O

Key:
MOLT-4 cells [1] = assay: Cyclic GMP assay in MOLT-4 cells; type: cell-based, human; settings: for activity in cGMP dose-response curves (FIG. 1): evaluated from 1 to 1000 μgs/ml in MOLT-4 cells
Source text: This assay measures the ability of a peptide of this invention to bind to the cell membrane receptor of the intact MOLT-4 cell and selectively stimulate production of cyclic GMP, as does human thysplenin and human thymopentin.
The MOLT-4 cell line was obtained from the American Type Culture Collection of Rockville, Md. MOLT-4 cells were freshly seeded and grown for 3 days with harvesting as described in T. Audhya et al, Arch. Biochem Biophys., 234: 167-177 (1984). The cells were washed 3 times in PBS and resuspended in RPMI 1640 at a concentration of 1.0×10^7 cells/ml and were allowed to equilibrate at 37° C. for 30 minutes before the addition of the test tetrapeptides and pentapeptides (25 ul) and control peptides. The incubation was allowed to proceed in a shaking water bath for 4-5 minutes and was then terminated by addition of 1 ml ice-cold TCA (10 percent).
The cells in TCA were homogenized and sonicated to release cyclic nucleotide. The suspension was centrifuged at 3000×g for 20 minutes at 4° C. The resulting precipitate was dissolved in 0.1N NaOH to determine the protein content. TCA was removed from the supernatant fraction by extracting 4 times with 5 ml of water-saturated diethyl ether. After the final extraction, the remaining traces of ether were removed by heating for 10 minutes in a 50° C. water bath. After lyophilization the sample was reconstituted in 50 mM acetate buffer (pH 6.2) for radioimmunoassay of cyclic GMP.
A threshold activity was determined for each peptide tested. This is defined as the lowest concentration of the test peptide which induced an intracellular level of cyclic GMP greater than two standard deviations above the control. The controls had intracellular cyclic GMP values of less than 0.5 picomoles/ml (mean±standard deviation). Test results were considered positive if the level of cyclic GMP was greater than 2 times (2 standard deviations) that determined for the parallel negative control.

[2] = Enzymatic stability in human serum; type: in vitro ADME; settings: 37° C., HPLC
Source text: Thymopentin was 50% degraded at about 20 seconds.

[3] = Enzymatic stability in rat intestinal juice; settings: 37° C., HPLC
Method: To illustrate the stability of a peptide of the present invention against degradation by intestinal and serum enzymes, an exemplary peptide Acetyl-Arg-Pro-Asp-Val-NH2 was incubated at 37° C. in rat intestinal juice and human serum for up to 120 minutes. Similarly treated for comparison were the tetrapeptide Arg-Lys-Asp-Val and thymopentin.

BP8 murine tumor cells = assay: BP8 tumor inhibition assay; type: in vivo, C3H mice; settings: 30 ng or 30 μg subcutaneously once per week, vs glycine-raffinose vehicle
Method: An assay is performed using normal healthy C3H laboratory mice. The mice, in groups of 12 to 20, are injected subcutaneously with either 30 ng or 30 μg of a peptide of the present invention once per week. This peptide (acetyl-Arg-Pro-Val-Ala-NH2) called splenoralin was administered in citrate buffer containing 1% glycine and 2% D-raffinose pentahydrate, as described in pending United States patent application Ser. No. 336,236, incorporated herein by reference. A control group of mice were injected similarly with 30 μg of the glycine-raffinose vehicle without the peptide.
Four weeks after the initiation of these weekly injections, each mouse was inoculated intradermally with 5×10^6 BP8 murine tumor cells. BP8 is a conventional benzpyrene induced murine tumor. Once every week thereafter, each mouse is injected with the same amount of either the peptide formulation or the vehicle alone.
FIG. 3 indicates the percent of mice in each group which are negative for the presence of BP8 tumors in the days after the inoculation of tumor cells. FIG. 4 indicates for the same experiment the maximum size of tumors in those mice that did develop tumors.

[4] = system: non-obese diabetic (NOD) mice; assay: Diabetic mice assay; type: in vivo; settings: 1 mg/kg body weight one time a week from weaning, vs vehicle
Source text: A strain of non-obese diabetic (NOD) laboratory mice maintained in Hopital Necker, Paris, France, have been bred in which the females spontaneously develop autoimmune disease of the pancreas. In the normal course of this disease in mice, the pancreatic cells are destroyed, resulting in loss of insulin production and diabetes mellitus. This mouse strain thus is a close model of Type I onset juvenile diabetes, which is normally treated with insulin replacement, but which can be typically slowed by immunosuppressive drugs, e.g., cyclosporin.
In this assay, groups of 12 to 20 NOD female mice are injected with 1 mg/kg body weight of a peptide of the present invention one time a week at weaning. This peptide (acetyl-Arg-Pro-Val-Ala-NH2) called splenoralin was administered the above-described formulation containing glycine and raffinose. A control group of mice were injected similarly with 1 mg of the glycine-raffinose vehicle without the peptide one time a week.

[5] = Kisfaludy et al 1983; cited from earlier work
MOLT-4 cells [6] = settings: cited from earlier work
CEM cells = settings: cited from earlier work
[7] = Table I, peptide concentration 1 μg/ml
[8] = Table I, peptide concentration 10 μg/ml
[9] = Table I, peptide concentration 100 μg/ml
[10] = Table I, peptide concentration 1000 μg/ml
[11] = Table II, peptide concentration 1 μg/ml
[12] = Table II, peptide concentration 10 μg/ml
[13] = Table II, peptide concentration 100 μg/ml

Row | Molecule | cGMP Concentration (MOLT-4 cells [1]; [7]) [picograms/ml] | cGMP Concentration (MOLT-4 cells [1]; [8]) [picograms/ml] | cGMP Concentration (MOLT-4 cells [1]; [9]) [picograms/ml] | cGMP Concentration (MOLT-4 cells [1]; [10]) [picograms/ml] | also measured
1 | CC(=O)N[C@@H](CCCNC(=N)N)C(=O)NC(C)(C)C(=O)N[C@@H](C)C(=O)N[C@H](C(N)=O)C(C)C [Acetyl-Arg--Aib--Ala--Val--NH2, Acetyl-Arg-Aib-Ala-Val-NH2] (Ac-R[Aib]AV-NH2) | 18.78 | 30.45 | 36.17 | 39.48 | 
2 | CC(=O)N[C@@H](CCCNC(=N)N)C(=O)NC(C)(C)C(=O)N[C@@H](CCC(=O)O)C(=O)N[C@H](C(N)=O)C(C)C [Acetyl-Arg--Aib--Glu--Val--NH2, Acetyl-Arg-Aib-Glu-Val-NH2] (Ac-R[Aib]EV-NH2) | 3.7 | 11.0 | 17.7 | 24.9 | 
3 | CC(=O)N[C@@H](CCCNC(=N)N)C(=O)N1CCC[C@H]1C(=O)N[C@@H](C)C(=O)N[C@H](C(N)=O)C(C)C [Acetyl-Arg--Pro--Ala--Val--NH2, Acetyl-Arg-Pro-Ala-Val-NH2] (Ac-RPAV-NH2) | 7.1 | 14.6 | 19.1 | 24.5 | activity in cGMP dose-response curves (FIG. 1) (MOLT-4 cells [1]): active
4 | CC(=O)N[C@@H](CCCNC(=N)N)C(=O)N1CCC[C@H]1C(=O)N[C@@H](CC(=O)O)C(=O)N[C@H](C(N)=O)C(C)C [Acetyl-Arg--Pro--Asp--Val--NH2, Acetyl-Arg-Pro-Asp-Val-NH2] (Ac-RPDV-NH2) | 4.55 | 8.99 | 19.62 | 24.09 | time remaining substantially undegraded [2]: at least 120 seconds; time remaining substantially undegraded ([3]; rat intestinal juice): at least 120 seconds
5 | CC(=O)N[C@@H](CCCNC(=N)N)C(=O)N1CCC[C@H]1C(=O)N[C@@H](CCC(N)=O)C(=O)N[C@H](C(N)=O)C(C)C [Acetyl-Arg--Pro--Gln--Val--NH2] (Ac-RPQV-NH2) | 18.75 | 29.68 | 34.98 | 40.23 | 
6 | CC(=O)N[C@@H](CCCNC(=N)N)C(=O)N1CCC[C@H]1C(=O)N[C@@H](CCC(=O)O)C(=O)N[C@H](C(N)=O)C(C)C [Acetyl-Arg--Pro--Glu--Val--NH2, Acetyl-Arg-Pro-Glu-Val-NH2] (Ac-RPEV-NH2) | 4.7 | 9.41 | 16.76 | 25.00 | 
7 | CC(=O)N[C@@H](CCCNC(=N)N)C(=O)N1CCC[C@H]1C(=O)N[C@H](C(=O)N[C@@H](C)C(N)=O)C(C)C [Acetyl-Arg--Pro--Val--Ala--NH2, Acetyl-Arg-Pro-Val-Ala-NH2] (Ac-RPVA-NH2) |  |  |  |  | cGMP Concentration (MOLT-4 cells [1]; [11]): 7.77 picograms/ml; cGMP Concentration (MOLT-4 cells [1]; [12]): 17.39 picograms/ml; cGMP Concentration (MOLT-4 cells [1]; [13]): 24.47 picograms/ml; activity in cGMP dose-response curves (FIG. 2) (MOLT-4 cells [1]; evaluated from 1 to 100 μgs/ml in MOLT-4 cells): active; resistance to BP8 tumor growth (percent tumor negative, tumor size; FIG. 3, 4) (BP8 murine tumor cells): enabled the mice to resist the spread and growth of the tumor cells; incidence of diabetes / survival in NOD female mice (FIG. 6) [4]: restored the immune function and allowed survival of a greater number of animals than did the placebo
8 | CC(=O)N[C@@H](CCCNC(=N)N)C(=O)N1CCC[C@H]1C(=O)N[C@@H](CC(=O)O)C(=O)N1CCC[C@H]1C(N)=O [Acetyl-Arg-Pro-Asp-Pro-NH2, reference compound] (Ac-RPDP-NH2) |  |  |  |  | activity in cGMP dose-response curves (FIG. 1) (MOLT-4 cells [1]): inactive
9 | CC(C)[C@H](NC(=O)[C@H](CC(=O)O)NC(=O)[C@H](CCCCN)NC(=O)[C@@H](N)CCCNC(=N)N)C(=O)O [Arg-Lys-Asp-Val, reference compound] (H-RKDV-OH) |  |  |  |  | time after which totally digested ([3]; rat intestinal juice and human serum, matrix of this value not stated): 25 s
10 | Acetyl-Arg-Pro-beta-Asp-Gly-NH2 [Acetyl-Arg--Pro-β-Asp--Gly--NH2] | 20.56 | 31.83 | 36.66 | 34.95 | 
11 | Acetyl-Arg-Pro-β-D-Asp-Val-NH2 [Acetyl-Arg--Pro-β-D-Asp--Val--NH2] | 6.6 | 14.3 | 20.5 | 25.0 | activity in cGMP dose-response curves (FIG. 1) (MOLT-4 cells [1]): active
12 | Arg-Ala-Asp-Val (RADV; printed: Arg-Ala-Asp-Val) |  |  |  |  | activity in in vitro E rosette test [5]: drastically reduced activity
13 | Arg-Lys-Ala-Val (RKAV; printed: Arg-Lys-Ala-Val) |  |  |  |  | activity in in vitro E rosette test [5]: drastically reduced activity
14 | Arg-Lys-Glu-Val (RKEV; printed: Arg-Lys-Glu-Val) |  |  |  |  | activity in in vitro E rosette test [5]: highly active
15 | RKDVY [Arg--Lys--Asp--Val--Tyr, Arg-Lys-Asp-Val-Tyr, reference compound] | 6.4 | 18.3 | 20.8 | 21.9 | cGMP Concentration (MOLT-4 cells [1]; [11]): 3.55 picograms/ml; cGMP Concentration (MOLT-4 cells [1]; [12]): 13.56 picograms/ml; cGMP Concentration (MOLT-4 cells [1]; [13]): 18.70 picograms/ml; cGMP Concentration (MOLT-4 cells [1]; Table II, peptide concentration 1000 μg/ml): 24.85 picograms/ml; biological changes in MOLT-4 cells (MOLT-4 cells [6]): induce biological changes; biological changes in CEM cells (CEM cells): induce biological changes
16 | thymopoietin: immunomodulatory protein isolated from bovine and human thymus (PEFLEDPSVLTKDKLKSELVANNVTLPAGEQRKDVYVQLYLQHLTARNR; Thymopoietin; UniProt P42166 2-50, looked up) |  |  |  |  | biological changes in MOLT-4 cells (MOLT-4 cells [6]): induce biological changes; biological changes in CEM cells (CEM cells): induce biological changes
